What was measured:
[1] = tested on: Human prostate cancer (LNCaP, DU145, PC-3) or normal epithelial (RWPE) cells; test: Western blot and luminescence assays of iCasp9 expression in prostate cancer and normal epithelial cells; type: cell-based; conditions: DU145, PC-3, RWPE cells treated with Fusogenix lipid nanoparticles carrying pVax-p53-iCasp9-luc plasmid
[2] = tested on: Human prostate cancer PC-3 cells; test: Western blot of iCasp9 and Casp9 protein levels in PC-3 cells; type: cell-based; conditions: PC-3 cells treated with Fusogenix lipid nanoparticles carrying pVax-p53-iCasp9-luc plasmid
Description: FIG. 36 is a Western blot of iCasp 9 and Casp 9 protein levels obtained with p53-expressing cells (pVax-p53) and control cells (pcDNA3-GFP). Human prostate cancer PC-3 cells were treated with Fusogenix lipid nanoparticles carrying the pVax-p53-iCasp9-luc (luciferin) plasmid (in the presence and absence of the homodimerizer AP201870) and assessed for iCasp9 expression.
Human prostate cancer PC-3 cells were treated with Fusogenix lipid nanoparticles carrying the pVax-p53-iCasp9-luc (luciferin) plasmid (in the presence and absence of the homodimerizer AP201870) and assessed for iCasp9 expression and subjected to Western blot analysis of iCasp 9 and Casp 9 protein levels obtained with p53-expressing cells (pVax-p53) and control cells (pcDNA3-GFP). FIG. 36.

[3] = humans; cited from earlier work
[4] = tested on: Human prostate cancer PC-3 cells; test: Luminescence assay of iCasp9 expression in PC-3 cells; type: cell-based; conditions: PC-3 cells treated with Fusogenix lipid nanoparticles carrying pVax-p53-iCasp9-luc plasmid
Description: FIG. 42 is a bar graph of data from a luminescence assay of iCasp 9 and Casp 9 protein levels obtained with the p53-expressing cells presented in FIG. 36 (pVax-p53) and control cells (pcDNA3-GFP). Human prostate cancer PC-3 cells were treated with Fusogenix lipid nanoparticles carrying the pVax-p53-iCasp9-luc (luciferin) plasmid (in the presence and absence of the homodimerizer AP20187) and assessed for iCasp9 expression.
Human prostate cancer PC-3 cells were treated with Fusogenix lipid nanoparticles carrying the pVax-p53-iCasp9-luc (luciferin) plasmid (in the presence and absence of the homodimerizer AP20187) and assessed for iCasp9 expression.

[5] = Anti-p14 and anti-LNP antibody response in immune competent mice; type: in vivo; conditions: with adjuvant: 3 injections of 50 μg p14 with Freund's adjuvant at 10 day intervals; sera after 30 days
Description: Mice were injected three (3) times at 10 day intervals with purified p14 mixed with Freund's adjuvant. A first dose contained CFA (complete Freund's adjuvant) while second and third doses contained IFA (incomplete Freund's adjuvant). Each injection was with 50 μg of p14. Mice were sacrificed after 30 days and sera was analyzed for anti-p14 antibodies. p14 lipid nanoparticles were also tested in two (2) mice via intravenous injection of 400 μg of p53-iCasp9 Fusogenix lipid nanoparticles containing 240 μg of p14. Mice were sacrificed after 30 days of injection and serum was analyzed for anti-p14 antibodies. A positive control included purified antibodies spiked in serum at a high dose of 250 ng/ml and a low dose of 50 ng/ml.

Molecule	expression of iCasp9 and luciferase after addition of CID [1]	expression of iCasp9 and luciferase after addition of CID [2]	intravenous safety [3]	expression of iCasp9 and luciferase after addition of CID [4]	anti-p14 antibody response [5]
CC[C@H](C(=O)N1CCCC[C@H]1C(=O)O[C@H](CCc1ccc(OC)c(OC)c1)c1cccc(OCC(=O)NCCNC(=O)COc2cccc([C@@H](CCc3ccc(OC)c(OC)c3)OC(=O)[C@@H]3CCCCN3C(=O)[C@@H](CC)c3cc(OC)c(OC)c(OC)c3)c2)c1)c1cc(OC)c(OC)c(OC)c1 [AP1903]	abolishes the expression of iCasp9 and luciferase	abolishes the expression of iCasp9 and luciferase	confirmed	abolishes the expression of iCasp9 and luciferase	–
CC[C@H](C(=O)N1CCCC[C@H]1C(=O)O[C@H](CCc1ccc(OC)c(OC)c1)c1cccc(OCC(=O)NCC(CNC(=O)COc2cccc([C@@H](CCc3ccc(OC)c(OC)c3)OC(=O)[C@@H]3CCCCN3C(=O)[C@@H](CC)c3cc(OC)c(OC)c(OC)c3)c2)CN(C)C)c1)c1cc(OC)c(OC)c(OC)c1 [AP20187]	abolishes the expression of iCasp9 and luciferase	abolishes the expression of iCasp9 and luciferase	–	abolishes the expression of iCasp9 and luciferase	–
p14: fusogenic p14 FAST fusion protein from reptilian reovirus, SEQ ID NO: 16 (protein, listed as Homo sapiens) MGSGPSNFVNHAPGEAIVTGLEKGADKVAGTISHTIWEVIAGLVALLTFLAFGFWLFKYLQKRRERRRQLTEFQKRYLRNSYRLSEIQRPISQHEYEDPYEPPSRRKPPPPPYSTYVNIDNVSAI	–	–	–	–	virtually no antibody response

— patent US11603543B2, “Fusogenic lipid nanoparticles for target cell-specific production of a therapeutic protein” (Oisin Biotechnologies, Inc., priority 2018, dated 2023)
